Assay results reported in patent US20240132480A1, “INHIBITORS OF MYCOBACTERIUM TUBERCULOSIS LIPOAMIDE DEHYDROGENASE” (Cornell University, priority 2021, published 2024).
pIC50: −log10 of the molar value.

molecular target: Mtb Lpd (Mycobacterium tuberculosis (strain ATCC 25618 / H37Rv), UniProt P9WHH9); type: biochemical; conditions: 30 min preincubation; read-out: LPD IC50 (μM) w/ 30 min preincubation

| Compound | IC50 |
| --- | --- |
| Cc1cc(S(=O)(=O)N(C)CC(=O)Nc2ccc(N3CCOCC3)c(Cl)c2)c2[nH]ncc2c1 [Example 126] | 0.015 µM |
| Cc1cc(S(=O)(=O)N(C)CC(=O)Nc2ccn3nccc3c2)c2[nH]c(C#N)cc2c1 [Example 220] | 0.019 µM |
| Cc1cc(S(=O)(=O)N(C)CC(=O)Nc2ccc3c(c2)CCCO3)c2[nH]c(C#N)cc2c1 [Example 221] | 0.015 µM |
| Cc1cc(S(=O)(=O)N(C)CC(=O)Nc2cc(=O)n(C)cn2)c2[nH]c(C#N)cc2c1 [Example 222] | 0.027 µM |

same assay, conditions: read-out: LPD IC50

| Compound | pIC50 |
| --- | --- |
| Cc1cc(S(=O)(=O)N(C)CC(=O)Nc2cc(C)n(C)c(=O)c2)c2[nH]ncc2c1 [Example 17, 2-((N,5-dimethyl-1H-indazole)-7-sulfonamido)-N-(1,6-dimethyl-2-oxo-1,2-dihydropyridin-4-yl)acetamide] | 7.28 |
| Cc1cc(S(=O)(=O)N(CC(=O)Nc2ccn(C)c(=O)c2)C2COC2)c2[nH]ncc2c1 [Example 38, N-(1-methyl-2-oxo-1,2-dihydropyridin-4-yl)-2-((5-methyl-N-(oxetan-3-yl)-1H-indazole)-7-sulfonamido)acetamide] | 6.38 |
| Cc1cc(S(=O)(=O)N(C)CC(=O)NC2CCN(C)CC2)c2n[nH]cc2c1 [Example 53] | 6.02 |
| Cc1cc(S(=O)(=O)N(C)CC(=O)NC2CCCOC2)c2n[nH]cc2c1 (stereo not shown) [Example 54] | 7.04 |
| Cc1cc(S(=O)(=O)N(C)CC(=O)N[C@H]2CCc3ccccc32)c2n[nH]cc2c1 [Example 55] | 6.06 |
| Cc1cc(S(=O)(=O)N(C)CC(=O)N[C@@H]2CCc3ccccc32)c2n[nH]cc2c1 [Example 56] | 7.37 |
| Cc1cc(S(=O)(=O)N(C)CC(=O)Nc2nc3ccccc3s2)c2n[nH]cc2c1 [Example 58] | 7.50 |
| COc1ccc(NC(=O)CN(C)S(=O)(=O)c2cc(C)cc3c[nH]nc23)nc1 [Example 60] | 7.38 |
| Cc1cc(S(=O)(=O)N(C)CC(=O)Nc2ccc3ccccc3n2)c2n[nH]cc2c1 [Example 64] | 7.47 |
| Cc1cc(S(=O)(=O)N(C)CC(=O)NC2CCOCC2)c2n[nH]cc2c1 [Example 65] | 6.93 |
| Cc1cc(S(=O)(=O)N(C)CC(=O)NC2CCCN(C)C2)c2n[nH]cc2c1 (stereo not shown) [Example 66] | 6.23 |
| Cc1cc(S(=O)(=O)N(C)CC(=O)Nc2cc3ccccc3cn2)c2n[nH]cc2c1 [Example 67] | 7.43 |
| Cc1cc(S(=O)(=O)N(C)CC(=O)NC2CCN(C)C(=O)C2)c2n[nH]cc2c1 (stereo not shown) [Example 68] | 6.83 |
| Cc1cc(S(=O)(=O)N2CC[C@H]2C(=O)NC2CCCCC2)c2[nH]ncc2c1 [Example 70, (S)—N-cyclohexyl-1-((5-methyl-1H-indazol-7-yl)sulfonyl)azetidine-2-carboxamide] | 6.55 |
| Cc1cc(S(=O)(=O)N(C)CC(=O)NC2CCCCC2)c2n[nH]cc2c1 [Example 73] | 7.07 |
| Cc1cc(S(=O)(=O)N(C)CC(=O)NC2C(=O)Nc3ccccc32)c2n[nH]cc2c1 (stereo not shown) [Example 77] | 6.10 |
| Cc1cc(S(=O)(=O)N(C)CC(=O)NC2C(=O)N(C)c3ccccc32)c2n[nH]cc2c1 (stereo not shown) [Example 79] | 6.11 |
| Cc1cc(S(=O)(=O)N2CC[C@H]2C(=O)NC2COC2)c2[nH]ncc2c1 [Example 80] | 6.55 |
| Cc1cc(S(=O)(=O)N2CCC2C(=O)NCc2ccccc2)c2[nH]ncc2c1 (stereo not shown) [Example 81] | 6.21 |
| Cc1cc(S(=O)(=O)N2CC[C@H]2C(=O)Nc2cc3ccccc3cn2)c2[nH]ncc2c1 [Example 82] | 7.31 |

| Compound | pIC50 |
| --- | --- |
| Cc1cc(S(=O)(=O)N2CC[C@H]2C(=O)Nc2ccc3ccccc3n2)c2[nH]ncc2c1 [Example 84] | 7.57 |
| Cc1cc(S(=O)(=O)N2CC[C@H]2C(=O)Nc2ccc(C#N)c(Cl)c2)c2[nH]ncc2c1 [Example 86] | 7.38 |
| Cc1cc(S(=O)(=O)N(C)CC(=O)Nc2ccc3c(c2)OCCN3C2CCOCC2)c2[nH]ncc2c1 [Example 89] | 7.38 |
| Cc1cc(S(=O)(=O)N2CC[C@H]2C(=O)Nc2ccn3nccc3c2)c2[nH]ncc2c1 [Example 91] | 7.39 |
| Cc1cc(S(=O)(=O)N2CCC[C@@H](C(=O)Nc3ccn(C)c(=O)c3)C2)c2[nH]ncc2c1 [Example 96, (R)-1-((5-methyl-1H-indazol-7-yl)sulfonyl)-N-(1-methyl-2-oxo-1,2-dihydropyridin-4-yl)piperidine-3-carboxamide] | 6.95 |
| Cc1cc(S(=O)(=O)N(C)CC(=O)Nc2ccn3nc(C)cc3c2)c2[nH]ncc2c1 [Example 104] | 6.80 |
| C#CCNC(=O)CN(C)S(=O)(=O)c1cc(C)cc2cn[nH]c12 [Example 107] | 7.33 |
| Cc1cc(S(=O)(=O)N(C)CC(=O)NCc2cn(C)nn2)c2[nH]ncc2c1 [Example 108] | 6.95 |
| Cc1cc(S(=O)(=O)N(C)CC(=O)NCc2ccccc2C)c2[nH]ncc2c1 [Example 109] | 6.97 |
| Cc1cccc(CNC(=O)CN(C)S(=O)(=O)c2cc(C)cc3c[nH]nc23)c1 [Example 110] | 7.39 |
| Cc1ccc(CNC(=O)CN(C)S(=O)(=O)c2cc(C)cc3cn[nH]c23)cc1 [Example 111] | 7.28 |
| Cc1cc(S(=O)(=O)N(C)CC(=O)N[C@H]2CCCOC2)c2[nH]ncc2c1 [Example 112] | 6.96 |
| Cc1cc(S(=O)(=O)N(C)CC(=O)N[C@@H]2CCCOC2)c2[nH]ncc2c1 [Example 113] | 6.74 |
| Cc1cc(S(=O)(=O)N(C)CC(=O)NC2CCc3cnccc32)c2n[nH]cc2c1 (stereo not shown) [Example 114] | 7.02 |
| Cc1cc(S(=O)(=O)N(C)CC(=O)Nc2nc3cnccc3s2)c2n[nH]cc2c1 [Example 115] | 7.56 |
| Cc1cc(S(=O)(=O)N(C)CC(=O)Nc2nc3c(s2)CCOC3)c2n[nH]cc2c1 [Example 116] | 7.11 |
| CCc1cc(S(=O)(=O)N(C)CC(=O)Nc2ccn(C)c(=O)c2)c2n[nH]cc2c1 [Example 117, 2-((5-ethyl-N-methyl-1H-indazole)-7-sulfonamido)-N-(1-methyl-2-oxo-1,2-dihydropyridin-4-yl)acetamide] | 7.30 |
| CCCc1cc(S(=O)(=O)N(C)CC(=O)Nc2ccn(C)c(=O)c2)c2[nH]ncc2c1 [Example 118] | 7.15 |
| Cc1cc(S(=O)(=O)N2CC[C@@H](C(=O)Nc3ccc(N4CCOCC4)c(Cl)c3)C2)c2n[nH]cc2c1 [Example 119] | 7.46 |
| Cc1cc(S(=O)(=O)N2CCC(C(=O)Nc3ccc4c(c3)OCCN4C)C2)c2[nH]ncc2c1 (stereo not shown) [Example 120] | 7.71 |

| Compound | pIC50 |
| --- | --- |
| Cc1cc(S(=O)(=O)N(C)CC(=O)Nc2ccc(N3CCOCC3)c(Cl)c2)c2[nH]ncc2c1 [Example 126] | 7.72 |
| Cc1cc(S(=O)(=O)N(C)CC(=O)NC2(C)CCCCC2)c2n[nH]cc2c1 [Example 127] | 5.94 |
| Cc1cc(S(=O)(=O)N2CC[C@H]2C(=O)NC2CCOCC2)c2[nH]ncc2c1 [Example 128] | 5.97 |
| Cc1cc(S(=O)(=O)N(C)CC(=O)Nc2ccn3c(C(F)(F)F)ncc3c2)c2n[nH]cc2c1 [Example 130] | 7.46 |
| Cc1cc(S(=O)(=O)N2CC[C@H]2C(=O)NC2CCc3ccccc32)c2[nH]ncc2c1 (stereo partly shown) [Example 131] | 5.60 |
| Cc1cc(S(=O)(=O)N(C)CC(=O)Nc2ccn(C)c(=O)c2)c2nn[nH]c2c1 [Example 132, 2-((N,5-dimethyl-1H-benzo[d][1,2,3]triazole)-7-sulfonamido)-N-(1-methyl-2-oxo-1,2-dihydropyridin-4-yl)acetamide] | 6.41 |
| Cc1cc(S(=O)(=O)N(C)CC(=O)Nc2ccn(C)c(=O)c2)c2[nH][nH]c(=O)c2c1 [Example 133, 2-((N,5-dimethyl-3-oxo-2,3-dihydro-1H-indazole)-7-sulfonamido)-N-(1-methyl-2-oxo-1,2-dihydropyridin-4-yl)acetamide] | 7.15 |
| Cc1cc(S(=O)(=O)N(C)CC(=O)Nc2ccn(C)c(=O)c2)c2[nH]c(C)cc2c1 [Example 134] | 6.02 |
| Cc1cc(S(=O)(=O)N2CC[C@H]2C(=O)NC2CCCN(C)C2)c2[nH]ncc2c1 (stereo partly shown) [Example 135-R] | 5.58 |
| Cc1cc(S(=O)(=O)N2CC[C@H]2C(=O)NC2CCCN(C)C2)c2[nH]ncc2c1 (stereo partly shown) [Example 135-S] | 5.23 |
| Cc1cc(S(=O)(=O)N(C)CC(=O)Nc2nc3c(s2)CCN(C)C3)c2n[nH]cc2c1 [Example 137, 2-(N,5-dimethyl-1H-indazole-7-sulfonamido)-N-(5-methyl-4,5,6,7-tetrahydrothiazolo[4,5-c]pyridin-2-yl)acetamide] | 7.60 |
| Cc1cc(S(=O)(=O)N2CC[C@H]2C(=O)NC2CCc3ccccc32)c2[nH]ncc2c1 (stereo partly shown) [Example 138] | < 5.00 |
| Cc1cc(S(=O)(=O)N2CC[C@H]2C(=O)N[C@H]2CCCOC2)c2[nH]ncc2c1 [Example 141, (2S)-1-[(5-methyl-1H-indazol-7-yl)sulfonyl]-N-[(3S)-tetrahydropyran-3-yl]azetidine-2-carboxamide] | 6.09 |
| Cc1cc(S(=O)(=O)N2CC[C@H]2C(=O)N[C@@H]2CCCOC2)c2[nH]ncc2c1 [Example 142, (2S)-1-[(5-methyl-1H-indazol-7-yl)sulfonyl]-N-[(3R)-tetrahydropyran-3-yl]azetidine-2-carboxamide] | 6.33 |
| Cc1cc(S(=O)(=O)N(C)CC(=O)Nc2nc3c(s2)NCCC3)c2n[nH]cc2c1 [Example 154, 2-((N,5-dimethyl-1H-indazole)-7-sulfonamido)-N-(4,5,6,7-tetrahydrothiazolo[5,4-b]250yclopro-2-yl)acetamide] | 7.30 |
| CCN(CC(=O)Nc1ccc2c(c1)OCCN2C1COC1)S(=O)(=O)c1cc(C)cc2c[nH]nc12 [Example 155] | 7.61 |
| Cc1cc(S(=O)(=O)N(C)CC(=O)Nc2ccc3c(c2)OCCN3C(C)C)c2n[nH]cc2c1 [Example 157] | 7.85 |
| CN(CC(=O)Nc1ccn(C)c(=O)c1)S(=O)(=O)c1cc(C2(O)CC2)cc2cn[nH]c12 [Example 172, 2-((5-(1-hydroxycyclopropyl)-N-methyl-1H-indazole)-7-sulfonamido)-N-(1-methyl-2-oxo-1,2-dihydropyridin-4-yl)acetamide] | 6.18 |
| Cc1cc(S(=O)(=O)N(C)CC(=O)Nc2ccn(C)c(=O)c2)c2[nH]nc(C#N)c2c1 [Example 182, 2-((3-cyano-N,5-dimethyl-1H-indazole)-7-sulfonamido)-N-(1-methyl-2-oxo-1,2-dihydropyridin-4-yl)acetamide] | 6.14 |
| Cc1cc(S(=O)(=O)N2CCC(C(=O)Nc3ccn(C)c(=O)c3)C2)c2[nH]ncc2c1 (stereo not shown) [Example 213] | 5.72 |
